Results on four compounds are retold here after the NIST ThermoML archive (doi:10.1016/j.fluid.2019.03.019).

Structures are written as SMILES. Numbers after ± are expanded uncertainties.

By mass density is commonly meant the mass of a sample divided by its volume. Broadly, the vapor or sublimation pressure is the pressure of vapour in equilibrium with the condensed phase.

For the data set the following is noted: Liquid; for mass density: 298.15 K, 101.33 kPa, Vibrating tube method; for vapor or sublimation pressure: Closed cell (Static) method.

With `CCO` [ethanol], the mass density came to 785.09 ± 0.13 kg/m3. The “vapor or sublimation pressure” value (393.15 K) amounted to 429 ± 7 kPa.
`CO` [methanol]: the mass density was 786.42 ± 0.13 kg/m3. Also, the “vapor or sublimation pressure” value (362.65 K) is on record as 251 ± 6 kPa. For the same compound, the “vapor or sublimation pressure” value (363.15 K) is recorded as 255 ± 6 kPa. Further, the “vapor or sublimation pressure” value (383.15 K) was determined as 481 ± 6 kPa. In addition, the “vapor or sublimation pressure” value (391.95 K) is listed as 618 ± 6 kPa. Further, under “392.95 K”, the “vapor or sublimation pressure” value was found to be 636 ± 7 kPa. Also, the “vapor or sublimation pressure” value (393.15 K) was determined as 640 ± 7 kPa. Further, the “vapor or sublimation pressure” value (403.15 K) came out at 843 ± 7 kPa. Also, under “413.15 K”, the “vapor or sublimation pressure” value is given as 1092 ± 7 kPa. Further, the “vapor or sublimation pressure” value (420.95 K) is on record as 1316 ± 7 kPa. Moreover, the “vapor or sublimation pressure” value (422.95 K) amounted to 1380 ± 8 kPa. For the setting “423.15 K”, the “vapor or sublimation pressure” value is given as 1387 ± 8 kPa.
As to `COC(=O)OC` [dimethyl carbonate], the mass density amounted to 1063.24 ± 0.1 kg/m3. Where the note is “383.15 K”, the “vapor or sublimation pressure” value turned out to be 187 ± 6 kPa. The “vapor or sublimation pressure” value (403.15 K) came out at 320 ± 6 kPa. For the setting “413.15 K”, the “vapor or sublimation pressure” value is recorded as 414 ± 6 kPa.
As to `O` [water], the “vapor or sublimation pressure” value (393.15 K) was found to be 199 ± 6 kPa.
